In article PMC11542593, “Vascular endothelial growth factor receptor 2 as a potential host target for the inhibition of enterovirus replication” (Journal of Virology, 2024):

Tests used:
EV-D70 = assay: Antiviral activity against EV-D70 in RD cells (RT-qPCR, TCID50); format: cell-based, enterovirus D70; conditions: 10 µM, 0.1 MOI, 24 h
Procedure: Detection of cellular mRNA expression and viral load was performed as described previously ([24]). In brief, the infected or mock-infected cells were lysed and applied to total RNA extraction by using the MiniBEST Universal RNA Extraction Kit (TaKaRa, Code No.9767). Viral RNA in the supernatant was extracted with the MiniBEST Viral RNA Extraction Kit (TaKaRa, Code No.9766). Reverse transcription was performed using the PrimeScript RT reagent Kit (TaKaRa, Code No.PR037A) with an oligo (dT) primer. The resultant cDNAs were used for qPCR assay with the Light Cycler 480 SYBR Green I Master Mix (Roche) to measure the mRNA expression level of cellular genes or viral load in supernatants. The relative viral gene copy was determined by RT-qPCR, using GAPDH as an internal reference.
The viral titer in the indicated samples was determined by TCID50 assay as described previously ([25]). Briefly, serially diluted samples from 10^−1 to 10^−8 in DMEM were inoculated to RD cells, BGMK cells, or MRC-5 in 96‐well plates. The cells were then incubated for 2 to 3 days at 37°C. TCID50 was calculated by counting the wells with cytopathic effect in infected cells using the Reed–Muench method.
The viral gene copy in the cell lysate is normalized with the transcript of GAPDH and presented. Viral titers were also detected by TCID50 assay. […] All experiments were independently repeated thrice.

EV-A71 [1] = assay: Virus attachment/entry assay in RD cells; format: cell-based, Human enterovirus A71; conditions: 10 µM, MOI 5
Procedure: After 2 hpi, the infectious inoculum was removed, and cell lysates were collected. The intracellular viral RNA load was then determined using RT-qPCR analysis. […] The cell lysates were then collected to detect the intracellular viral gene copy by RT-qPCR analysis.
Fig. S5. […] (A) EV-A71 inactivation assay. […] (B) EV-A71 attachment assay. […] After 2 hpi, the infectious inoculum was removed and cells were washed again. The intracellular viral RNA load was then determined using RT-qPCR analysis. (C) EV-A71 entry assay.

EV-A71 [2] = assay: Flow cytometry of VP1-positive EV-A71-infected RD cells; format: cell-based, Human enterovirus A71; conditions: 10 μM, MOI 2, 6 and 9 hpi
Procedure: Flow cytometry analysis was performed according to the standard protocol as described previously ([28]). In brief, the infected or mock-infected RD cells were dissociated with 10 mM EDTA and then fixed with 4% paraformaldehyde for 30 min. After permeabilization, the cells were incubated with rabbit anti‐VP1 antibody (GeneTex, GTX132339), followed by labeling with FITC-conjugated goat anti-rabbit IgG (Beyotime, P0176). Flow cytometry analysis was performed using a BD Fortessa flow cytometer (BD Biosciences), and the data were analyzed using FlowJo v.10 (Tree Star, USA).
Fig. S4. […] Then the infected- and mock-infected RD cells were fixed, labeled, and applied to flow cytometry to evaluate the percentage of VP1-positive cells at 0, 3, 6 and 9 hpi. […] Mean and SD of three independent experiments are presented (B and C). *p < 0.05; **p < 0.01.

## Cc1ccc(Nc2nccc(N(C)c3ccc4c(C)n(C)nc4c3)n2)cc1S(N)(=O)=O [Pazopanib]
EV-D70
  decrease in viral load and viral titer: over 2 logs
EV-A71 [1]
  effect on viral attachment/entry (EV-A71 mRNA levels in cell lysates): did not affect the viral attachment/entry stage
EV-A71 [2]
  percentage of EV-A71-infected RD cells: markedly decreased
